Experimental findings from paper PMC5917010, “Structural basis for GPR40 allosteric agonism and incretin stimulation” (Nature Communications, 2018) are described below.

SMILES strings stand for the structures. Where “and” joins values, the source holds several entries; their conditions need not be identical. Equal values may be shown once. Read-outs that look alike come from different tables or passages of the source. Bounds are passed on as bounds.

One test has as its target T1, human PPARdelta (Homo sapiens, UniProt Q03181).
T1 sequence (Q03181 1-441): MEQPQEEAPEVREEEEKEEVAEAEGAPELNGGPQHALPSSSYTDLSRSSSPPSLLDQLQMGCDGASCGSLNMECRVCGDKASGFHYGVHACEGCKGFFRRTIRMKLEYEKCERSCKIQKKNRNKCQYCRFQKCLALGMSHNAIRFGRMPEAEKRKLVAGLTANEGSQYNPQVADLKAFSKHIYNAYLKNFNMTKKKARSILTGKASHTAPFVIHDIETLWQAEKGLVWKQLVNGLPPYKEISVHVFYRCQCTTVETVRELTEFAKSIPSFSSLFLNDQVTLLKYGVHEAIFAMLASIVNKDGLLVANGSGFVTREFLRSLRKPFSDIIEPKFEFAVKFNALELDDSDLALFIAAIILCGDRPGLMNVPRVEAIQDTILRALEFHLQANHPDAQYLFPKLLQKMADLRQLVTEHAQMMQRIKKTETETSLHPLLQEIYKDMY
Put plainly: human PPARdelta binding. To be noted: Supplementary Table 1.

In another test the target is T2, human GPR40 (Homo sapiens, UniProt O14842).
T2 construct: HEK293 cells stably overexpressing full length human GPR40; expressed in transfected cells
T2 sequence (O14842 whole entry): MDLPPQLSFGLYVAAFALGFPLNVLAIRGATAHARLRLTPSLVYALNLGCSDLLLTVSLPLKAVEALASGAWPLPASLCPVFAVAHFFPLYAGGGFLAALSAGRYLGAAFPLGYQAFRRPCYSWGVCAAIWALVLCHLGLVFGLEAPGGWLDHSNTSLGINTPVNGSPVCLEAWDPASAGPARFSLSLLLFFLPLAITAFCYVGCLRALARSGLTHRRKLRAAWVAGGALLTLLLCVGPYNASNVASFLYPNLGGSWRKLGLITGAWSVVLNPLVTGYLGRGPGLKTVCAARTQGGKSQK
Kind of test: Ca2+ mobilization assay (FLIPR), HEK293 cells stably overexpressing GPR40. It is filed as cell-based. To be noted: for Ca2+ mobilization (FLIPR) Top: relative to 500 µM linoleic acid; for agonist type in Ca2+ mobilization assay: relative to 500 µM of the natural ligand, linoleic acid. As to the method: HEK293 cells stably overexpressing full length human GPR40 were plated (50K cells/well) into 96-well microtiter plates using Dulbecco’s Modified Eagle’s Medium (DMEM) supplemented with 10% certified fetal bovine serum (FBS), 20 mM HEPES, pH 7.4, 1 mM Sodium Pyruvate, 100 U/mL Penicillin, 100 µg/mL Streptomycin, and 800 µg/mL Geneticin. The cells were incubated overnight at 37 °C and 5% CO2. Calcium 4 dye (Molecular Devices) diluted in assay buffer was added (100 µL per well) to the cell plates, followed by a 1 h incubation in the dark at 25 °C. Test compounds were serially diluted three-fold in 100% DMSO and immediately diluted in assay buffer. […] Receptor activation was immediately measured as an increase in intracellular calcium using the FLIPR® over 3 min. To determine agonist responses, relative fluorescence units (RFUs) over 60 reads were calculated per well and used to calculate percent stimulation relative to 500 µM of the natural ligand, linoleic acid, response. EC50 values were calculated by plotting test compound concentration vs. percent stimulation using a 4-parameter logistic curve fitting equation.
(In general: A change in cytosolic calcium serves as a functional read-out for many receptors and channels.)

In another test the target is Rat GPR40 (Rattus norvegicus, UniProt Q8K3T4). Kind of test: Rat GPR40 b-arrestin. It is filed as cell-based.
Sequence of Rat GPR40 (Q8K3T4 whole entry): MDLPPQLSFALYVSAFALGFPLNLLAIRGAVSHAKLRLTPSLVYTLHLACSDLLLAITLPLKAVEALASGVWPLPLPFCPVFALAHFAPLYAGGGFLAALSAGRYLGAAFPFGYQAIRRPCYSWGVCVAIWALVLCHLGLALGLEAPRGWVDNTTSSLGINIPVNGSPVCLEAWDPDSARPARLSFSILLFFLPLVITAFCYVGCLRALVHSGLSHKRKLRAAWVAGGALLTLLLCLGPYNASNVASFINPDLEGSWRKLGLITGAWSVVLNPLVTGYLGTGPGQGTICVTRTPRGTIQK
A further test addresses Mouse GPR40 (Mus musculus, UniProt Q76JU9). Put plainly: Mouse GPR40 b-arrestin. Type of test: cell-based.
Another test deals with C57Bl/6 mice. Put plainly: Incretin secretion assay in C57Bl/6 mice. Particulars: for plasma PYY level: Fig. 3e; for plasma total GLP-1: wild type C57BL/6 mice. Type of test: in vivo, mouse. As to the method:
Nine week old male C57Bl/6 mice (Envigo, Indianapolis) were used. The night before the incretin assay, mice were transferred to clean cages and fasted overnight. On the morning of the assay, the mice were weighed and randomized by block randomization into groups based on body weight (N = 6) so each group had similar mean and standard deviation of body weight. […] Animals were dosed with vehicle or the test article by oral gavage. Group allocations were not blinded from the experimenters who collected the data. The mice were sacrificed at 0.5, 1, 2, 4, or 8 h post the compound treatment. Blood was taken by cardiac puncture into EDTA tubes containing DPPIV inhibitor and aprotinin cocktail after CO2 euthanization. The final DPPIV inhibitor concentration was 50 µM and aprotinin was 250 K IU/mL. Blood samples were centrifuged at 3000×g for 5 min and plasma transferred into 96 well plates. Plasma total GLP-1 and active GIP levels were measured by ELISA assays that were developed in-house. Data were expressed as mean±s.e.m. […] Cook’s distance was also calculated from linear regression. All animals were included in the analysis with their individual Cook’s distance < 1. Significance is denoted at p < 0.05.

A further test concerns the target T3, human GPR40 (A2 site) (Homo sapiens, UniProt O14842).
T3 construct: full length recombinant human GPR40 (GPR40) cDNA; expressed in transfected cells; host or cells: HEK 293, stably transfected; crude cell surface membranes
Put plainly: A2 site radioligand binding with [3H]-AM-1638. As for the experimental part:
Crude cell surface membranes were prepared from human embryonic kidney 293 (HEK 293) cells stably transfected (for the wild type) or transiently transfected (for the mutants and corresponding wild type) with full length recombinant human GPR40 (GPR40) cDNA, using differential centrifugation methods.
A2 Site Binding. 10 µL of compound diluted in 100% DMSO and 90 µL of Assay Buffer (50 mM Tris-HCl, pH 7.5, 10 mM CaCl2, 10 mM MgCl2, 0.1% w/v Bacitracin, 2.5% w/v dextran charcoal-treated FBS) were added to a deep 96-well polypropylene assay plate (Beckman Coulter). Two hundred μl of [^3H]-AM-1638 (84 Ci/mmol, Quotient Bioresearch Radiochemicals, Ltd.; 0.5 nM final concentration) and 200 µL of GPR40 membranes (5 µg/well), both diluted in Assay Buffer, were added to the assay plate, followed by a 1 min shake and a 1 h incubation at room temperature (22 °C).
Assays were terminated by filtration through GF/C glass fiber filtermats (Perkin Elmer) presoaked in 50 mM Tris–HCl, pH 7.5, using a Mach III cell harvester (TomTec). Filtermats were washed two times with 5 mL of ice-cold 50 mM Tris–HCl, pH 7.5 buffer, dried 1 h in a convection oven at 60 °C and embedded with Meltilex A solid scintillant (Perkin Elmer). Radioactivity was determined as counts per min (cpm) using a Trilux Microbeta plate scintillation counter (Perkin Elmer).

Another test concerns the target T4, Human GPR120 (Homo sapiens, UniProt Q5NUL3).
T4 sequence (Q5NUL3 1-361): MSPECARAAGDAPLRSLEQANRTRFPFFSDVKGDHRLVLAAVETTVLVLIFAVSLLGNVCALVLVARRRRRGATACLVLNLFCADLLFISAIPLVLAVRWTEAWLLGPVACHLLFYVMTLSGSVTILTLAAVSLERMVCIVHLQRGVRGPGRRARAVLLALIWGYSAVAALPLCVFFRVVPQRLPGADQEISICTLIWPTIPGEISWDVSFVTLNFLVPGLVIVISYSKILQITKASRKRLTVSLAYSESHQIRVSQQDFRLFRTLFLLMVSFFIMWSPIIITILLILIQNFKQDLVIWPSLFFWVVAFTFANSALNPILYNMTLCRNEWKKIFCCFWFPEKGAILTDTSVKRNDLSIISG
Put plainly: Human GPR120 b-arrestin. Type of test: cell-based. Particulars: Supplementary Table 1.

T3 sequence (O14842 whole entry): as the sequence (O14842 whole entry) above
Sequence of Mouse GPR40 (Q76JU9 whole entry): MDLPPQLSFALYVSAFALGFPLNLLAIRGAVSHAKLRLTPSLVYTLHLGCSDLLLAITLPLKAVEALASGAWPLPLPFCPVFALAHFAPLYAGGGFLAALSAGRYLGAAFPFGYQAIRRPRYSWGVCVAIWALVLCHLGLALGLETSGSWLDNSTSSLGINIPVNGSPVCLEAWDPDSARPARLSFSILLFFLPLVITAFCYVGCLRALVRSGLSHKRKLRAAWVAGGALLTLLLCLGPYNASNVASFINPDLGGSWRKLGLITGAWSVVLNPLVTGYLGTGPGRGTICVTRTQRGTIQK

In the case of `Cc1cc(OCCCS(C)(=O)=O)cc(C)c1-c1cccc(COc2ccc3c(c2)OC[C@H]3CC(=O)O)c1` [TAK-875], the IC50 on human PPARdelta is greater than 10000 nM. The “Ca2+ mobilization (FLIPR) Top” value on human GPR40 is given as 81.67%. Moreover, the “agonist type in Ca2+ mobilization assay” value on human GPR40 is recorded as “partial agonist”. Further, the 50% effective concentration (EC50) at Rat GPR40 was 36 nM; on Mouse GPR40, 8.6 nM; on Human GPR120, greater than 100000 nM. In the test with C57Bl/6 mice, the “plasma PYY level” value is reported as “no effect on plasma PYY level”. Besides, the “plasma total GLP-1” value in the test with C57Bl/6 mice (oral treatment at 30 mg/kg) is “no effect on plasma total GLP-1”. For the same compound, the “effect on [3H]-AM-1638 binding” value on human GPR40 (A2 site) (addition of unlabeled compound, Supplementary Fig. 1a) is reported as “enhanced”.

At human PPARdelta, `COc1ccc(C(=O)N(CC(C)(C)C)c2cccc(C)n2)c(N2CCC(c3cc4ccc([C@@H](CC(=O)O)C5CC5)cc4o3)CC2)c1` [compound 1] gave a half-inhibitory concentration (IC50) greater than 10000 nM. In addition, the EC50 was 72 nM and ~72 nM at human GPR40 (GPR40-Gαq signaling, stably transfected cells, no TAK-875); 2.1 nM at Rat GPR40; 1.6 nM on Mouse GPR40; greater than 100000 nM at Human GPR120. Besides, on human GPR40 (compound 1 with TAK-875, operational model, slope constrained to 1), the “cooperativity composite factor (Log αβ)” value is listed as 1.46. Moreover, the “efficacy modulation cooperativity factor (β)” value on human GPR40 (cooperativity between TAK-875 and compound 1) came out at 14. Further, at human GPR40 (cooperativity between TAK-875 and compound 1, averages from Figs. 1a and 8a), the “average α-factor” value amounted to 2.1. Further, the “Ca2+ mobilization (FLIPR) Top” value at human GPR40 came to 136.3%. The “agonist type in Ca2+ mobilization assay” value at human GPR40 is on record as “full agonist”. Also, the maximum response (Emax) stood at 163% on Rat GPR40 and 146% at Mouse GPR40. Also, the “plasma PYY level” value in the test with C57Bl/6 mice was “no effect on plasma PYY level”. Also, the “plasma active GIP concentrations” value in the test on C57Bl/6 mice (oral gavage, up to 8 h) is “significantly increases plasma active GIP concentrations up to 8 h”. The “plasma total GLP-1 concentrations” value in the test on C57Bl/6 mice (oral gavage, up to 8 h) was “significantly increases plasma total GLP-1 concentrations up to 8 h”. The “plasma total GLP-1” value with C57Bl/6 mice (oral treatment at 10 mg/kg, 4-hour window) is reported as “sustains an elevated level of plasma total GLP-1”. The inhibition constant Ki at human GPR40 (A2 site) (Supplementary Table 1, read-out: Human GPR40 Binding to A2 Ki) came to 0.9 nM; at human GPR40 (A2 site) (competitive radioligand binding, membranes from stably transfected cells, Fig. 1a, read-out: Ki in [3H]-AM-1638 binding), 0.81 nM.

The term IC50 denotes the concentration that inhibits the measured activity by half. Broadly, the EC50 is the concentration needed to bring the measured effect to its halfway point. As usually defined, the Emax is the greatest response seen or fitted, relative to the assay's reference. A word on the Ki: it is the equilibrium dissociation constant of an inhibitor or competing ligand from its target.
